Results from US20170266157A1, “METHODS FOR WOUND HEALING AND SCAR PREVENTION” (priority 2016, published 2017).

Legend:
[1] = test system: ear punch-hole wound (mouse pinna); experiment: Punch-hole biopsy of the ear of mice, topical treatment; assay type: in vivo, ICR breeder mice; conditions: topical once daily, within 21 days of punch-hole biopsy; 2.4 μg RT1061, 80 μg FK506
Method: Retired ICR breeder mice of both sexes with weight between 45 and 50 grams were subject to single bilateral punch-hole biopsies. The animals were then randomly assigned to one of three groups to receive either 2.4 μg of RT1061, 80 μg FK506 or a vehicle control. RT1061, FK506 or vehicle control was applied topically to both the ventral and dorsal surface of the ear, once each day including immediately after biopsy.
All wounds were photographed using a Nikon CoolPix 990 digital camera. Each image included a metric ruler that had been approximated to the wound. The images of the wounds were opened in Adobe Photoshop, and using the “measurement tool”, the length, in pixels, of 3 cm along the ruler's straight edge was determined. That number was used to calculate a conversion factor that was then used to normalize each photograph. The conversion factor was calculated as 100/length. To normalize the area of the lesion in a photograph, the […] using the “magic wand” tool, and the number of voxels were multiplied by the conversion factor, thus generating the equation: area=volume (voxels)*conversion factor. The area at t=0 was defined as 100%. […] The mean area of the initial hole was calculated as average […] of the punches at t=0 (determined by using an outline of the hole measured against the ruler, using Adobe Photoshop) times π. […]

[2] = test system: dermabrasion lesions of dorsal skin; experiment: Dermabrasion lesions of dorsal skin of mice, topical treatment; assay type: in vivo, ICR breeder mice; conditions: 5 μL of 100 nanomolar RT1061 topical once daily, 10 days after rasping
Method: Retired ICR breeder mice of both sexes with weight between 45 and 50 grams were shaved and rasped to induce dermabrasion lesions. The animals were then randomly assigned (5 per treatment arm) to one of two groups to receive either 5 μL of 100 nanomolar RT1061 or a vehicle control. RT1061 or vehicle control was applied topically to the lesion site once each day including immediately after dermabrasion.

[3] = test system: stem cell markers Oct-4 and Sox-2; experiment: Stem cell marker immunohistology of treated 5 mm dermal biopsy punch sites; assay type: in vivo, person; conditions: RT175 in Amantle cream base daily for 30 days, re-biopsy, 10 micron sections
Method: A person underwent bilateral 5 millimeter (“mm”) dermal biopsy punches in the forearm, 5 centimeter (“cm”) distal to the antecubital space. Treatment with RT175 in an Amantle™ cream base, or with the Amantle™ cream base alone was begun immediately upon hemostasis. The skin was treated daily for 30 days, whereupon the sites were re-biopsied and the tissue processed for immunohistology. 10 micron thick sections were stained for the expression of the stem cell markers Oct-4, see FIG. 4, panels a. and c., or Sox-2, see FIG. 4, panels b. and d. […] Not to be held to a particular theory, the presence of stem cells markers in RT175 treated wound sites indicates active stem cells. The presence of these stem cells in the wound site causes rapid and proper wound healing without the formation of scar tissue. In turn, the absence of stem cells from wound sites allows the formation of scar tissue.

[4] = molecular target: T1, FK506 binding protein 4 (FKBP52) (Homo sapiens, UniProt Q02790); conditions: cited from earlier work
T1 sequence (Q02790 1-459): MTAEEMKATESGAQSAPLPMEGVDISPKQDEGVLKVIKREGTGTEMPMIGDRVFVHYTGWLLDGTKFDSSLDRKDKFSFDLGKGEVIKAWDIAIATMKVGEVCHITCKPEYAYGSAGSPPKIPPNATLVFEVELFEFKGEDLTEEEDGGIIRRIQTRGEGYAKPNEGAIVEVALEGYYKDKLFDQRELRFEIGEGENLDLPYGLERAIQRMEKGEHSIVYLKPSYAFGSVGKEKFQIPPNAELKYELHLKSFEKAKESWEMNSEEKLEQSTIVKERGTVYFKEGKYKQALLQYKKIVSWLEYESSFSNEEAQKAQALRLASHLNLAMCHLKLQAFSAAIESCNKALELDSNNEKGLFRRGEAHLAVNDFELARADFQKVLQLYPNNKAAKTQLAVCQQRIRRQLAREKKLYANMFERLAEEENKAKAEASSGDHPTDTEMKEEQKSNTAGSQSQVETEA

[5] = molecular target: T2, FKBP52 (Homo sapiens, UniProt Q02790); conditions: treatment of fibroblasts for 2 hours; cited from earlier work
T2 construct: endogenous in cells
T2 sequence (Q02790 1-459): T1 sequence (Q02790 1-459)

[6] = test system: ED&C sites of the supradeltoid regions of the upper arm; experiment: Healing after electrodissection and curettage (ED&C) of the upper arm, topical treatment; assay type: in vivo, person
Method: The supradeltoid regions of the left and right upper arm were treated by electrodissection and curettage (“ED&C”) for treatment of basal cell […]. Beginning on the day of surgery, and daily thereafter the sites were treated with RT175 in an Amantle™ cream base, or with the Amantle™ cream base alone. […] See FIG. 2, Day 20, bottom panel. In contrast, 68 days after the procedure the vehicle treated site was still not fully closed. Six-months following the procedure, the RT175-treated site was scar-free, see FIG. 3, panel a., while the vehicle-treated site has a pronounced, hypopigmented stellate shaped scar, see FIG. 3, panel b.

[7] = test system: resection site of a periauricular basal cell carcinoma; experiment: Healing of full-thickness resection site of periauricular basal cell carcinoma, topical treatment; assay type: in vivo, person
Source text: A person underwent a full-thickness resection of a basal cell carcinoma on an outpatient basis. See FIG. 1, panel a. showing wound during operation and panel b. showing wound immediately post operation. RT175 formulated in an Amantle™ cream base was applied immediately post-operatively, and then daily thereafter for 12 days. […] An archival photo of a scar biopsy is included for comparison.

Structure (SMILES) | regeneration of mouse pinna tissue (ear-hole closure) [1] | hair growth [2] | regeneration of rasped skin [2] | expression of stem cell markers Oct-4 and Sox-2 in treated tissue [3] | binding affinity to FKBP52 [4] | translocation of FKBP52 [5] | treated site fully closed by ([6]; RT175 in Amantle cream base daily, vehicle site still not fully closed at 68 days) [post-operative day] | scar at treated site ([6]; six months following the procedure) | scar observed, skin appearance ([7]; 12th post-operative day, RT175 in Amantle cream base daily) | wound closed and largely healed by ([7]; RT175 in Amantle cream base, applied immediately post-operatively then daily for 12 days) [post-operative day] | scar tissue by biopsy ([7]; biopsy 6 months later)
CCC(C)(C)C(=O)C(=O)N1CCCC1Cc1ccccc1 (centres unmarked) [RT1061, 1-(2-benzylpyrrolidin-1-yl)-3,3-dimethylpentane-1,2-dione] | almost complete regeneration of the mouse pinna | rapid hair growth | rapid regeneration of rasped skin |  |  |  |  |  |  |  | 
CCC(C)(C)C(=O)C(=O)N1CCC[C@H]1C(=O)O [RT175] |  |  |  | expressed both stem cell markers | high affinity | translocation of FKBP52 to the nucleus | ≤ 20 | scar-free | little to no scar | ≤ 7 | absence of scar tissue
